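All cell lines were grown in 96-well plates and treated with compound for 48 hours. At the TGI there is no net growth.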
Experiments:
Test in all cases: DTP human tumour cell line panel, 48 h
EKVX NSCLC = test system: EKVX NSCLC
SNB-19 CNS = test system: SNB-19 CNS
HCC-2998 colon = test system: HCC-2998 colon
NCI-H23 lung = test system: NCI-H23 lung
MOLT-4 leukemia = test system: MOLT-4 leukemia
SF-268 CNS = test system: SF-268 CNS
XF 498 CNS = test system: XF 498 CNS
LXFL 529 NSCLC = test system: LXFL 529 NSCLC
OVCAR-5 ovarian = test system: OVCAR-5 ovarian
K-562 leukemia = test system: K-562 leukemia
SK-MEL-28 melanoma = test system: SK-MEL-28 melanoma
SN12C renal = test system: SN12C renal
SF-539 CNS = test system: SF-539 CNS
HT29 colon = test system: HT29 colon
UO-31 renal = test system: UO-31 renal
MALME-3M melanoma = test system: MALME-3M melanoma
UACC-62 melanoma = test system: UACC-62 melanoma
SNB-78 CNS = test system: SNB-78 CNS
SK-MEL-2 melanoma = test system: SK-MEL-2 melanoma
OVCAR-3 ovarian = test system: OVCAR-3 ovarian
NCI-H522 lung = test system: NCI-H522 lung
TK-10 renal = test system: TK-10 renal
COLO 205 colon = test system: COLO 205 colon
HCT-15 colon = test system: HCT-15 colon
SK-MEL-5 melanoma = test system: SK-MEL-5 melanoma
HOP-92 NSCLC = test system: HOP-92 NSCLC
ACHN renal = test system: ACHN renal
M19-MEL melanoma = test system: M19-MEL melanoma
IGROV1 ovarian = test system: IGROV1 ovarian
DMS 114 small cell lung = test system: DMS 114 small cell lung
HL-60(TB) leukemia = test system: HL-60(TB) leukemia
DLD-1 colon = test system: DLD-1 colon
786-0 renal = test system: 786-0 renal
OVCAR-8 ovarian = test system: OVCAR-8 ovarian
SW-620 colon = test system: SW-620 colon
KM12 colon = test system: KM12 colon
U251 CNS = test system: U251 CNS
A549 NSCLC = test system: A549 NSCLC
HOP-18 NSCLC = test system: HOP-18 NSCLC
SF-295 CNS = test system: SF-295 CNS
LOX IMVI melanoma = test system: LOX IMVI melanoma
DMS 273 small cell lung = test system: DMS 273 small cell lung
RXF 393 renal = test system: RXF 393 renal
M14 melanoma = test system: M14 melanoma
NCI-H460 lung = test system: NCI-H460 lung
A498 renal = test system: A498 renal
SK-OV-3 ovarian = test system: SK-OV-3 ovarian
KM20L2 colon = test system: KM20L2 colon
SNB-75 CNS = test system: SNB-75 CNS
CCRF-CEM leukemia = test system: CCRF-CEM leukemia
UACC-257 melanoma = test system: UACC-257 melanoma
HCT-116 colon = test system: HCT-116 colon
HOP-62 NSCLC = test system: HOP-62 NSCLC
RPMI-8226 leukemia = test system: RPMI-8226 leukemia
SR leukemia = test system: SR leukemia
OVCAR-4 ovarian = test system: OVCAR-4 ovarian
CAKI-1 renal = test system: CAKI-1 renal
NCI-H226 lung = test system: NCI-H226 lung

C[Si](C)(C)/C=C/CCC(C=O)(CCCl)c1ccccc1 (configuration not stated)
TGI (EKVX NSCLC): > 100 µM
TGI (SNB-19 CNS): > 100 µM
TGI (HCC-2998 colon): > 100 µM
TGI (NCI-H23 lung): > 100 µM
TGI (MOLT-4 leukemia): 53.8 µM
TGI (SF-268 CNS): > 100 µM
TGI (XF 498 CNS): 36 µM
TGI (LXFL 529 NSCLC): > 100 µM
TGI (OVCAR-5 ovarian): 97.7 µM
TGI (K-562 leukemia): > 100 µM
TGI (SK-MEL-28 melanoma): > 100 µM
TGI (SN12C renal): > 100 µM
TGI (SF-539 CNS): > 100 µM
TGI (HT29 colon): 36 µM
TGI (UO-31 renal): > 100 µM
TGI (MALME-3M melanoma): 52.7 µM
TGI (UACC-62 melanoma): 55.5 µM
TGI (SNB-78 CNS): 78.9 µM
TGI (SK-MEL-2 melanoma): 29.7 µM
TGI (OVCAR-3 ovarian): 38.1 µM
TGI (NCI-H522 lung): 35.6 µM
TGI (TK-10 renal): > 100 µM
TGI (COLO 205 colon): 85.4 µM
TGI (HCT-15 colon): 46.1 µM
TGI (SK-MEL-5 melanoma): 33.9 µM
TGI (HOP-92 NSCLC): 89.1 µM
TGI (ACHN renal): 73.2 µM
TGI (M19-MEL melanoma): > 100 µM
TGI (IGROV1 ovarian): > 100 µM
TGI (DMS 114 small cell lung): 54.9 µM
TGI (HL-60(TB) leukemia): > 100 µM
TGI (DLD-1 colon): > 100 µM
TGI (786-0 renal): 40.8 µM
TGI (OVCAR-8 ovarian): 87 µM
TGI (SW-620 colon): > 100 µM
TGI (KM12 colon): > 100 µM
TGI (U251 CNS): 33 µM
TGI (A549 NSCLC): 98.4 µM
TGI (HOP-18 NSCLC): 80 µM
TGI (SF-295 CNS): 57.2 µM
TGI (LOX IMVI melanoma): 36.2 µM
TGI (DMS 273 small cell lung): 55.2 µM
TGI (RXF 393 renal): 54.6 µM
TGI (M14 melanoma): 86.6 µM
TGI (NCI-H460 lung): > 100 µM
TGI (A498 renal): > 100 µM
TGI (SK-OV-3 ovarian): > 100 µM
TGI (KM20L2 colon): > 100 µM
TGI (SNB-75 CNS): 96.6 µM
TGI (CCRF-CEM leukemia): > 100 µM
TGI (UACC-257 melanoma): 75.8 µM
TGI (HCT-116 colon): 32.3 µM

CC1(O)C=CC2CCC1C2O (configuration not stated)
TGI (EKVX NSCLC): > 100 µM
TGI (SNB-19 CNS): > 100 µM
TGI (NCI-H23 lung): > 100 µM
TGI (MOLT-4 leukemia): > 100 µM
TGI (SF-268 CNS): 93.7 µM
TGI (XF 498 CNS): > 100 µM
TGI (LXFL 529 NSCLC): > 100 µM
TGI (OVCAR-5 ovarian): > 100 µM
TGI (K-562 leukemia): > 100 µM
TGI (SK-MEL-28 melanoma): > 100 µM
TGI (HOP-62 NSCLC): > 100 µM
TGI (SN12C renal): > 100 µM
TGI (SF-539 CNS): > 100 µM
TGI (HT29 colon): > 100 µM
TGI (UO-31 renal): > 100 µM
TGI (RPMI-8226 leukemia): 53.5 µM
TGI (MALME-3M melanoma): > 100 µM
TGI (UACC-62 melanoma): > 100 µM
TGI (SNB-78 CNS): > 100 µM
TGI (SK-MEL-2 melanoma): > 100 µM
TGI (OVCAR-3 ovarian): > 100 µM
TGI (NCI-H522 lung): > 100 µM
TGI (TK-10 renal): > 100 µM
TGI (COLO 205 colon): 75.7 µM
TGI (HCT-15 colon): > 100 µM
TGI (SK-MEL-5 melanoma): > 100 µM
TGI (ACHN renal): > 100 µM
TGI (M19-MEL melanoma): > 100 µM
TGI (SR leukemia): 50.2 µM
TGI (IGROV1 ovarian): > 100 µM
TGI (DMS 114 small cell lung): 32.1 µM
TGI (HL-60(TB) leukemia): > 100 µM
TGI (DLD-1 colon): > 100 µM
TGI (786-0 renal): 75.5 µM
TGI (OVCAR-8 ovarian): > 100 µM
TGI (KM12 colon): > 100 µM
TGI (U251 CNS): > 100 µM
TGI (OVCAR-4 ovarian): > 100 µM
TGI (A549 NSCLC): > 100 µM
TGI (HOP-18 NSCLC): > 100 µM
TGI (SF-295 CNS): > 100 µM
TGI (LOX IMVI melanoma): 35.9 µM
TGI (CAKI-1 renal): > 100 µM
TGI (DMS 273 small cell lung): > 100 µM
TGI (RXF 393 renal): > 100 µM
TGI (M14 melanoma): > 100 µM
TGI (NCI-H460 lung): > 100 µM
TGI (A498 renal): > 100 µM
TGI (SK-OV-3 ovarian): > 100 µM
TGI (KM20L2 colon): > 100 µM
TGI (SNB-75 CNS): > 100 µM
TGI (NCI-H226 lung): > 100 µM
TGI (CCRF-CEM leukemia): > 100 µM
TGI (UACC-257 melanoma): > 100 µM
TGI (HCT-116 colon): 36.2 µM

Source: PubChem BioAssay (NCI)
